Earlier results as cited in patent US20140363484A1, “FIBROUS BIO-DEGRADABLE POLYMERIC WAFERS SYSTEM FOR THE LOCAL DELIVERY OF THERAPEUTIC AGENTS IN COMBINATIONS” (Amrita Vishwa Vidyapeetham, priority 2012, published 2014).

Conditions: under physiological conditions

half-life: 1.8 h
SMILES: Cn1nnc2c(C(N)=O)ncn2c1=O [temozolomide]
